Results on 1 compound are retold here after patent publication US6858434B1, “Method for synthesis, separation and screening of a plurality of compounds in the same bulk of a stationary phase” (Sinvent AS, priority 1999, dated 2005).

This experiment concerns Serracia marcescens. Briefly: agar overlay screening for antimicrobial activity on the TLC plate. The format is cell-based. The settings on record: agar gel containing Serracia marcescens poured over the TLC plate, left overnight at room temperature.

The structures appear in SMILES notation.

For the compound `c1ccc(CN2CCCC2)cc1` [product], the “antibacterial activity (white inhibition zones around the spot)” value is “antibacterial activity”.
